Active and inactive are the calls of the source. The calls are words filed in the database; no cut-off is given here.
Assays:
A549 [1] = assay: Induction of apoptosis in human A549 cells assessed as early apoptotic cells at 20 nM incubated for 24 hrs by annexin V-FITC/propidium iodide staining based flow cytometry analysis (reference value: 0.84%); format: functional
A549 [2] = assay: Antitumor activity against human A549 cells xenografted in BALB/c mouse assessed as tumor volume at 5 mg/kg, ip administered every other day for 25 days; format: functional; settings: time 25 day
A549 [3] = assay: Antitumor activity against human A549 cells xenografted in BALB/c mouse assessed as reduction in EGFR phosphorylation at S473 residue in tumor at 5 to 10 mg/kg, ip administered every other day for 25 days by Western blotting analysis; format: functional, organism-based; settings: dose 5-10 mg/kg, time 25.0 day
A549 [4] = assay: Antimigratory activity against human A549 cells assessed as inhibition of cell migration at 5 nM and incubated for 12 hrs by scratch wound healing assay (reference value: 29.5 +/- 1.34%); format: functional; design: scale not given: the % may be the effect or the level left
A549 [5] = assay: Induction of apoptosis in human A549 cells assessed as late apoptotic cells at 40 nM incubated for 24 hrs by annexin V-FITC/propidium iodide staining based flow cytometry analysis (reference value: 0.37%); format: functional
A549 [6] = assay: Antitumor activity against human A549 cells xenografted in ip dosed BALB/c mouse assessed as decrease in Ki-67 expression in tumor administered every other day for 25 days by immunohistochemistry analysis; format: functional, organism-based; settings: dose 10.0 mg/kg, time 25.0 day
A549 [7] = assay: Antitumor activity against human A549 cells xenografted in BALB/c mouse assessed as upregulation of cleaved PARP expression in tumor at 5 mg/kg, ip administered every other day for 25 days by Western blotting analysis; format: functional, organism-based; settings: time 25.0 day
A549 [8] = assay: Induction of apoptosis in human A549 cells assessed as early apoptotic cells at 10 nM incubated for 24 hrs by annexin V-FITC/propidium iodide staining based flow cytometry analysis (reference value: 0.84%); format: functional
A549 [9] = assay: Antitumor activity against human A549 cells xenografted in BALB/c mouse assessed as tumor weight at 5 mg/kg, ip administered every other day for 25 days; format: functional, organism-based; settings: time 25.0 day
A549 [10] = assay: Residual cell migration in human A549 cells at 20 nM incubated for 12 hrs by crystal violet staining based transwell assay; settings: A549, 12 h
Tubulin = assay: Binding affinity to tubulin (unknown origin) assessed as dissociation constant by SPR analysis; format: protein-complex assay, Homo sapiens
A549 [11] = assay: Induction of cell cycle arrest in human A549 cells assessed as accumulation at S phase at 40 nM incubated for 24 hrs by PI staining based flow cytometry (Rvb= 20.94%); format: functional
A549 [12] = assay: Antimigratory activity against human A549 cells assessed as inhibition of cell migration at 10 nM and incubated for 12 hrs by scratch wound healing assay (reference value: 29.5 +/- 1.34%); format: functional; design: scale not given: the % may be the effect or the level left
A549 [13] = assay: Induction of apoptosis in human A549 cells assessed as early apoptotic cells at 40 nM incubated for 24 hrs by annexin V-FITC/propidium iodide staining based flow cytometry analysis (reference value: 0.84%); format: functional
A549 [14] = assay: Induction of cell cycle arrest in human A549 cells assessed as accumulation at G2 phase at 20 nM incubated for 24 hrs by PI staining based flow cytometry (Rvb= 12.49%); format: functional
A549 [15] = assay: Antiproliferative activity against human A549 cells expressing lentivirus RNAi VTI-96660 assessed as inhibition of cell growth measured after 48 hrs by MTT assay; format: functional, cell-based
[16] = AUC(0 to infinity) in Sprague-Dawley rat at 1 mg/kg, iv by LC-MS analysis; format: ADME, organism-based; design: dose 1 mg/kg, route iv; settings: in vivo

Question: With `COc1cccc(Nc2cc(Nc3cccc(NC(=O)C4CC4)c3)ncn2)c1` as the compound, how does the Activity (A549 [1]) read?
Answer: 1.69%

Question: And the Activity (A549 [2])?
Answer: 42.51%

Question: And the Activity (A549 [3])?
Answer: inactive

Question: What about the Activity (A549 [4]) of the same compound?
Answer: 23.2%

Question: And the Activity (A549 [5])?
Answer: 26.72%

Question: What about the Activity (A549 [6]) of the same compound?
Answer: Dose-Dependent Effect

Question: What about the Activity (A549 [7]) of the same compound?
Answer: Active

Question: And the Activity (A549 [8])?
Answer: 1.5%

Question: And the Activity (A549 [9])?
Answer: Active

Question: And the level, % of control at 0.02 µM (A549 [10])?
Answer: 56.3%

Question: And the Kd (Tubulin)?
Answer: 43.2 µM

Question: And the Activity (A549 [11])?
Answer: 15.31%

Question: What about the Activity (A549 [12]) of the same compound?
Answer: 15.8%

Question: And the Activity (A549 [13])?
Answer: 3.86%

Question: What about the Activity (A549 [14]) of the same compound?
Answer: 33.13%

Question: And the Activity (A549 [15])?
Answer: Active

Question: And the AUC [16]?
Answer: 239.43 ng·h/mL

Source: ChEMBL document CHEMBL5325400 (Eur J Med Chem, 2023)
